Square brackets hold non-standard residues; d marks the D form. Peptide text beside a SMILES is read from it. * marks the point of attachment. Dolaproine = CO[C@@H]([C@@H]1CCCN1)[C@@H](C)C(=O)O; Dil = CC[C@H](C)[C@H](NC)[C@@H](CC(=O)O)OC; X1 = C[C@@H](N*)[C@@H](O)c1ccccc1; NMeV = CN[C@H](C(=O)O)C(C)C
Key:
[1] = tested on: Staphylococcus aureus USA300; assay: Antibacterial activity against free bacteria (OD600nm); type: cell-based; details: free USA300, 37 °C, 16 h to 18h
Description: The present example evaluated the antibacterial efficacy of compound III-16 against free Staphylococcus aureus. 5 µL to 10 µL of a Staphylococcus aureus USA300 stock suspension stored at - 80 °C was taken and streaked on Brain Heart Infusion solid culture plates and incubated overnight at 37 °C in a biochemical incubator. A single USA300 colony was picked from the solid culture plates, inoculated into an appropriate volume of Brain Heart Infusion medium, and activated for 16 h to 18 h in a bacteria shaking incubator, then the bacterial suspension was centrifuged for 5 min at a rotating speed of 4000 rpm to collect the bacteria. The bacteria were resuspended in 1×PBS and the bacterial density was diluted to about […]. The diluted bacterial suspension was added to 96-well plates at 100 µL per well. Serially diluted compound III-16 and rifalogue were added to the bacterial suspension in the 96-well plates, and the bacteria was cultured in a biochemical incubator at 37 °C for 16 h to 18h, then the OD600nm was detected using a microplate reader. […] Without being limited by theories, it is speculated that the activity of compound III-16 against free bacteria may be stemed from the cleavage of the linker in compound III-16 by azoreductase extracellularly secreted by the bacteria, which releases rifalogue to exert antibacterial effect.

BT-474 = assay: In vitro cytotoxicity (CellTiter Glo); type: cell-based; details: Homo sapiens, BT-474, read-out: EC50 (cell proliferation inhibitory activity)
Description: (§1) The test procedure was shown as follows: • 1. Thawing Cell • Cryopreserved target cells was thawed by gentle agitation of the cryovial in a 37 °C water bath; • after thawing, the cryovial was removed from the water bath and decontaminated by spraying or immersing in 70% ethanol; • the cells in the cryovial were transferred into a centrifuge tube containing 9 mL of complete DMEM culture medium, followed by centrifugation at 200 g for 5 min; • the cells were resuspended with culture medium, and precipitated and seeded into a 75 cm^2 culture flask; • the cells were cultured in a Galaxy® CO2 incubator (48R, #CO48312044) under standard culture conditions of 37 °C, 20% oxygen and 5% carbon dioxide. • 2. Spreading Cell • Cells were subcultured three times per week at a ratio of 1:4 in a culture medium supplemented with 10% FBS (heat inactivated) and a 1% Penicillin-Streptomycin solution; • for cell passaging, adherent cells were first rinsed with 3 mL of trypsin/EDTA solution (3 mL). Then, 3 mL of trypsin/EDTA solution was added to the T75 culture flask, and the flask was gently rotated to ensure uniform coverage of the cell. The cells were incubated at 37 °C until complete cell detachment was achieved. Cell detachment was verified under a microscope, then an equal volume of the cell culture medium was added to inactivate the trypsin, and the separated cells were collected, centrifuged at 200 g for 5 minutes, and then re-suspended in a fresh culture medium. • 3. Inoculating cell • The cells were collected and counted; • 100 µ L of a cell suspension with adjusted density were inoculated to a 96-well cell culture plate, and the final cell density was about from 5000 cells/well to 10000 cells/well; • The culture plate was covered and incubated in a 5% CO2 incubator with 20% oxygen at 37 °C for 24 h. • 4. […] Co-incubation of cells with test compounds The culture medium in the 96 wells plate inoculated with cells was discarded, 150 µL of fresh culture medium was added to each well, and then 50 µL of the prepared test compounds were added to the 96-well plate. After the cells were co-incubated with the compounds in an incubator under conditions of 37 °C, 5% CO2, and 0.1% O2 for 24 h. After incubation, the drug-containing medium was removed, and the cells were rinsed with a fresh culture medium. Then the cells were placed in an incubator at 37 °C, 5% CO2, and 20% O2 and continuously cultured for an additional 72 h or 120 h. • 6. Reading plate • The plate was taken out of the incubator and equilibrated for 15 minutes at room temperature; • prior to the experiment, the CellTiter Glo reagent was incubated at 37 °C; • The detection solution was prepared by diluting CellTiter-Glo reagent with PBS at a volume ratio of 3:7, and the diluted solution was added into the wells to be tested; • the plate was then shaken at room temperature for 8 min, and allowed to stand for 2 min, and then signals were detected using an EnSpire reader. • 7.

MCF-7 = assay: In vitro cytotoxicity (CellTiter Glo); type: cell-based; details: Homo sapiens, MCF7; hypoxic conditions (0.1% O2), HER2-; read-out: EC50 (cell proliferation inhibitory activity)
Description: as §1

MDA-MB-231 = assay: In vitro cytotoxicity (CellTiter Glo); type: cell-based; details: Homo sapiens, hypoxic conditions (0.1% O2), HER2-, read-out: EC50 (cell proliferation inhibitory activity)
Description: as §1

NCI-N87 = assay: In vitro cytotoxicity (CellTiter Glo); type: cell-based; details: Homo sapiens, hypoxic conditions (0.1% O2), HER2+, read-out: EC50 (cell proliferation inhibitory activity)
Description: as §1

SKBR3 = assay: In vitro cytotoxicity (CellTiter Glo); type: cell-based; details: Homo sapiens, SK-BR-3, read-out: EC50 (cell proliferation inhibitory activity)
Description: as §1

[2] = Distribution and metabolism in blood, tissues and tumour; type: in vivo, mice; details: for area under the drug-time curve as share of that in tumors: after compound III-2 25 mg/kg
Description: The present example evaluated distribution and metabolism of compound III-2. SKOV3 ovarian cancer tumor-bearing mice were randomly divided into 6 groups. After tail vein injection with a single dose of compound III-2 (25 mg/kg), the mice were euthanized at the predetermined time points of 6 h, 24h, 72 h, 96 h, 168 h, 192 h in order, and blood, heart, liver, spleen, lung, and tumor samples were collected. The blood and tissue samples were stored at -80 °C for further analysis. […] At 96 h after the administration, Cys-II-2 was hardly detected in heart, liver, spleen, and lung. The peak concentration and area under the curve of the cytotoxin MMAE in the tumor were 293 times and 941 times those in peripheral blood, respectively, further proving that the excellent targeting capability of compound III-2. The area under the drug-time curve of MMAE in heart, liver, spleen and lung were 11%, 47%, 5% and 7% of area under the drug-time curve in tumors, respectively. […] Table 5 Concentration of Cys-II-2 in each group

[3] = after compound III-2 25 mg/kg single tail vein injection

In the case of `CO[C@H]1C=CO[C@@]2(C)Oc3c(C)c(O)c4c(=O)c(c5oc6cc(N7CCC(N(C)C)CC7)cc(=O)c6nc5c4c3=C2O)NC(=O)/C(C)=C\C=C/[C@H](C)[C@H](O)[C@@H](C)[C@@H](O)[C@@H](C)[C@H](OC(C)=O)[C@@H]1C` [rifalogue], the MIC90 [1] is reported as “about 1.4 nM”.
In the case of `CC[C@H](C)[C@@H]([C@@H](CC(=O)N1CCC[C@H]1[C@H](OC)[C@@H](C)C(=O)N[C@H](C)[C@@H](O)c1ccccc1)OC)N(C)C(=O)[C@@H](NC(=O)[C@@H](NC)C(C)C)C(C)C` [MMAE] (H-[NMeV]V[Dil][Dolaproine]-X1), the EC50 (BT-474) is reported as 0.032 nM, the EC50 (MCF-7) is reported as 0.015 nM and the EC50 (MDA-MB-231) is reported as 0.57 nM. The EC50 (NCI-N87) was 0.24 nM, the EC50 (SKBR3) was 0.058 nM and the “Concentration of MMAE” value ([2]; Blood, 6 h, after compound III-2 25 mg/kg single tail vein injection) was 1.54 ng/g or ng/mL. For the same compound, the “Concentration of MMAE” value ([2]; Blood, 24 h, after compound III-2 25 mg/kg single tail vein injection) was 0.51 ng/g or ng/mL, the “Concentration of MMAE” value ([2]; Blood, 72 h, after compound III-2 25 mg/kg single tail vein injection) was 0.23 ng/g or ng/mL and the “Concentration of MMAE” value ([2]; Blood, 96 h, after compound III-2 25 mg/kg single tail vein injection) was 0.12 ng/g or ng/mL. The “Concentration of MMAE” value ([2]; Blood, 168 h, after compound III-2 25 mg/kg single tail vein injection) was 0.10 ng/g or ng/mL, the “Concentration of MMAE” value ([2]; Blood, 192 h, after compound III-2 25 mg/kg single tail vein injection) was “BQL” and the “Concentration of MMAE” value ([2]; Heart, 6 h, after compound III-2 25 mg/kg single tail vein injection) was 112.72 ng/g or ng/mL. The “Concentration of MMAE” value ([2]; Heart, 24 h, after compound III-2 25 mg/kg single tail vein injection) was 71.97 ng/g or ng/mL, the “Concentration of MMAE” value ([2]; Heart, 72 h, after compound III-2 25 mg/kg single tail vein injection) was 32.46 ng/g or ng/mL and the “Concentration of MMAE” value ([2]; Heart, 96 h, after compound III-2 25 mg/kg single tail vein injection) was 17.99 ng/g or ng/mL. The “Concentration of MMAE” value ([2]; Heart, 168 h, after compound III-2 25 mg/kg single tail vein injection) was 2.70 ng/g or ng/mL, the “Concentration of MMAE” value ([2]; Heart, 192 h, after compound III-2 25 mg/kg single tail vein injection) was 0.80 ng/g or ng/mL and the “Concentration of MMAE” value ([2]; Liver, 6 h, after compound III-2 25 mg/kg single tail vein injection) was 348.31 ng/g or ng/mL. The “Concentration of MMAE” value ([2]; Liver, 24 h, after compound III-2 25 mg/kg single tail vein injection) was 269.21 ng/g or ng/mL, the “Concentration of MMAE” value ([2]; Liver, 72 h, after compound III-2 25 mg/kg single tail vein injection) was 115.44 ng/g or ng/mL and the “Concentration of MMAE” value ([2]; Liver, 96 h, after compound III-2 25 mg/kg single tail vein injection) was 101.72 ng/g or ng/mL. For the same compound, the “Concentration of MMAE” value ([2]; Liver, 168 h, after compound III-2 25 mg/kg single tail vein injection) was 26.86 ng/g or ng/mL, the “Concentration of MMAE” value ([2]; Liver, 192 h, after compound III-2 25 mg/kg single tail vein injection) was 10.07 ng/g or ng/mL and the “Concentration of MMAE” value ([2]; Lung, 6 h, after compound III-2 25 mg/kg single tail vein injection) was 22.96 ng/g or ng/mL. For the same compound, the “Concentration of MMAE” value ([2]; Lung, 24 h, after compound III-2 25 mg/kg single tail vein injection) was 12.85 ng/g or ng/mL, the “Concentration of MMAE” value ([2]; Lung, 72 h, after compound III-2 25 mg/kg single tail vein injection) was 19.79 ng/g or ng/mL and the “Concentration of MMAE” value ([2]; Lung, 96 h, after compound III-2 25 mg/kg single tail vein injection) was 43.95 ng/g or ng/mL. The “Concentration of MMAE” value ([2]; Lung, 168 h, after compound III-2 25 mg/kg single tail vein injection) was 1.93 ng/g or ng/mL, the “Concentration of MMAE” value ([2]; Lung, 192 h, after compound III-2 25 mg/kg single tail vein injection) was 1.04 ng/g or ng/mL and the “Concentration of MMAE” value ([2]; Spleen, 6 h, after compound III-2 25 mg/kg single tail vein injection) was 21.29 ng/g or ng/mL. The “Concentration of MMAE” value ([2]; Spleen, 24 h, after compound III-2 25 mg/kg single tail vein injection) was 19.80 ng/g or ng/mL, the “Concentration of MMAE” value ([2]; Spleen, 72 h, after compound III-2 25 mg/kg single tail vein injection) was 20.24 ng/g or ng/mL and the “Concentration of MMAE” value ([2]; Spleen, 96 h, after compound III-2 25 mg/kg single tail vein injection) was 13.60 ng/g or ng/mL. For the same compound, the “Concentration of MMAE” value ([2]; Spleen, 168 h, after compound III-2 25 mg/kg single tail vein injection) was 3.82 ng/g or ng/mL, the “Concentration of MMAE” value ([2]; Spleen, 192 h, after compound III-2 25 mg/kg single tail vein injection) was 1.40 ng/g or ng/mL and the “Concentration of MMAE” value ([2]; Tumour, 6 h, after compound III-2 25 mg/kg single tail vein injection) was 54.24 ng/g or ng/mL. For the same compound, the “Concentration of MMAE” value ([2]; Tumour, 24 h, after compound III-2 25 mg/kg single tail vein injection) was 179.62 ng/g or ng/mL, the “Concentration of MMAE” value ([2]; Tumour, 72 h, after compound III-2 25 mg/kg single tail vein injection) was 292.45 ng/g or ng/mL and the “Concentration of MMAE” value ([2]; Tumour, 96 h, after compound III-2 25 mg/kg single tail vein injection) was 451.68 ng/g or ng/mL. For the same compound, the “Concentration of MMAE” value ([2]; Tumour, 168 h, after compound III-2 25 mg/kg single tail vein injection) was 198.90 ng/g or ng/mL, the “Concentration of MMAE” value ([2]; Tumour, 192 h, after compound III-2 25 mg/kg single tail vein injection) was 125.44 ng/g or ng/mL and the “area under the curve in the tumor relative to peripheral blood” value [2, 3] was 941 times. For the same compound, the “peak concentration in the tumor relative to peripheral blood” value [2, 3] was 293 times, the “area under the drug-time curve as share of that in tumors” value (shortened to “area under the drug-time curve as share”) ([2]; heart) was 11% and the “area under the drug-time curve as share” value ([2]; liver) was 47%. The “area under the drug-time curve as share” value ([2]; lung) was 7% and the “area under the drug-time curve as share” value ([2]; spleen) was 5%.
